Patent US12479803B2, “Antimalarial compounds” (UNIVERSITY OF CENTRAL FLORIDA RESEARCH FOUNDATION, INC., priority 2019, dated 2025)
Entries after “also recorded” stand apart in the source; their conditions may differ. Read-outs that look alike come from different tables or passages of the source. Marks after values point to notes of the source that are not given here.

Tests used:
[1] = system: CQ-resistant (Dd2) strain of P. falciparum; details: value reported from another study; cited from earlier work
[2] = molecular target: early stage (I-III) gametocytes of 3D7 expressing luciferase parasite; assay: In vitro gametocytocidal activity, early stage; format: cell-based, Plasmodium falciparum
Source text: (§1) Late stage (IV-V) gametocytes are more refractory to antimalarial drugs than early-stage gametocytes and blood stage parasites, and thus fewer compounds are effective against late stage Pf gametocytes. […] FIGS. 4A and 4B are an examples according to various embodiments illustrating results showing the activity of compound 24 on gametocyte stages, based on an evaluation of the viability of gametocytes after the exposure of compound 24 on early (A) and late (B) gametocytes stages of 3D7 expressing luciferase parasite. In FIGS. 4A and 4B, EC50 data represent the means and SEMs of three experiments. Therefore, arylvinylquinolines represented good leads as new antimalarials with promising dual stage (blood and gametocyte) activity.

[3] = In vitro microsomal turnover assay (metabolic stability); details: for Clint / % remaining after 60 min: microsomes; for % remaining after 60 min: 1 h
Protocol: Selectivity of compounds were determined by cytoxicity assay using MTS [(3-(4,5-dimethylthiazol-2-yl)-5-(3-carboxymethoxyphenyl)-2-(4-sulfophenyl)-2H-tetrazolium) in human hepatocytes. The metabolic stability of compounds was determined in mouse liver microsomes using an NADPH-regenerating system. The aqueous solubility at pH 7.4 was determined by UV-visible absorption based method. The permeability was assessed by the in vitro double-sink parallel artificial membrane permeability assay 52 that is a model for the passive transport from the gastrointestinal tract into the blood stream.
To assess the metabolic stability, the selected compounds were subjected to an in vitro microsomal turnover assay with mouse liver microsomal preparations. This assay determines the percentage of the parent compound residues after 60 min incubation (Table 7).

HepG2 = assay: Cytotoxicity assay using MTS in human hepatocytes; format: cell-based; details: for SI, selectivity index = [IC50 (HepG2)/IC50 (Dd2)]: HepG2 versus Dd2
[4] = system: β-hematin crystal formation; assay: β-hematin inhibition experiment; format: biochemical; details: 100 μM hemin, 16 h at 37° C., up to 200 μM compound
Protocol: CQ and other aminoquinolines are known to fight against the malaria parasites by blocking hematin biocrystallization (hemozoin formation) through π-π stacking between the aminoquinoline scaffold and the heme. As a result, the accumulated toxic heme causes the parasite death by introducing oxidative membrane damage. β-hematin inhibition experiments were performed to determine possible mode of actions of arylvinylquinolines. FIG. 5A is an example according to various embodiments illustrating images of β-hematin crystals after incubation of 100 μM hemin, propionate buffer, phosphatidylcholine and, several concentrations of compound for 16 h at 37° C. […] In FIGS. 5A and 5B, the data are mean±SEM.

[5] = molecular target: late stage (IV-V) gametocytes of 3D7 expressing luciferase parasite; assay: In vitro gametocytocidal activity, late stage; format: cell-based, Plasmodium falciparum; details: for IC50: late stage gametocytes, means and SEMs of three experiments
Source text: as §1

[6] = system: asynchronous Dd2 parasite cultures; assay: Kill kinetic experiments (rate of killing, parasitocidal/parasitostatic); format: cell-based, Plasmodium falciparum; details: 5×EC50 (Atovaquone 6.6 nM) for 6, 12, 24 and 48 h
Protocol: To study whether arylvinylquinolines exerted their antiplasmodial activity through a parasitocidal or parasitostatic mechanism, kill kinetic experiments in Dd2 strain were performed. […] After washing to remove the inhibitors at these time points, the growth of the cultures was continued to be assessed for 96 h.
FIGS. 3A, 3B, 3C, and 3D are examples according to various embodiments illustrating rate of killing and parasitocidal/parasitostatic activity determination of arylvinylquinolines. […] After each exposure, cultures were washed three times in RPMI, resuspended in culture media, and monitored for parasite growth daily for 4 days. DHA and Atovaquone (50 nM and 6.6 nM) were included as fast and slow acting controls, respectively. Parasitemia was determined by microscopy of Giemsa stained smear.

[7] = system: CQ-resistant (Dd2) strain of P. falciparum; assay: In vitro antiplasmodial activity, SYBR Green I fluorescence assay, Dd2 strain; format: cell-based, Plasmodium falciparum
Protocol: (§2) A set of 104 new styrylquinoline derivatives were synthesized and investigated for in vitro their antimalarial activity. To test antimalarial activities, different dilutions of compounds were added to P. falciparum culture. Following 72 h incubation at 37° C. in an atmosphere containing 5% CO2, the inhibitory property of the compounds were determined by SYBR Green I fluorescence assay. Meanwhile, SARs studies were conducted.
The SAR studies were focused on improving the in vitro activity of 2-arylvinylquinolines against the CQ-resistant Pf Dd2 strain.

[8] = system: P. falciparum 3D7 strain (CQ-sensitive); assay: In vitro antiplasmodium activity, 3D7 strain; format: cell-based, Plasmodium falciparum; details: Table 6A, nM, footnote calls it IC50, read-out: Antiplasmodium activity 3D7 (converted)
Protocol: as §2

[9] = system: tightly synchronized Dd2 parasites; assay: Developmental stage specific action (Giemsa microscopy and flow cytometry); format: cell-based, Plasmodium falciparum; details: 5×EC50, treated at 6, 18, 30 and 42 h post-invasion
Protocol: Accurate definition of the timing of action of antimalarial agents could give valuable insights into the developmental growth and clinical clearance of the parasite. To further understand the antimalarial activity of arylvinylquinolines, the developmental stage specific action of the most promising compound 24 was determined by both microscopy and flow cytometry analysis. Tightly synchronized cultures were exposed to 5×EC50 concentration of compound 24 at 6, 18, 30 and 42 hours post-invasion (HPI) of the merozoites. Microscopic analysis of Giemsa-stained-thin smears and flow cytometric evaluation were performed at 12 h intervals.
In FIGS. 2A and 2B, the results are representative of three independent biological replicates.

[10] = Cytotoxicity assay using MTS in human hepatocytes; format: cell-based; details: human, Table 6B, unit inferred, footnote IC50 (HepG2), read-out: Cytotoxic activity HepG2 (converted)
[11] = system: P. berghei ANKA strain expressing luciferase; assay: Rodent malaria model, Peters' four-day test with IVIS luminescence; format: in vivo; details: once daily, po
Protocol: Phosphate salts of 24, 29 and 88 were assessed (referred to hereinafter as 24 s, 29 s, and 88 s) in female Swiss Webster mice infected with P. berghei ANKA strain since this strain produced histopathological and immunopathological features which were particularly similar to human cerebral malaria. […] FIG. 6B is an example according to various embodiments illustrating a chart showing the luminescence detected and quantified 7 days after infection of the Swiss Webster females shown in FIG. 6A, using an in vivo imaging system (IVIS). […] As observed from FIG. 6A-B, all these compounds completely cured malaria infection in mice when exposed to 100 mg/kg daily by p.o. administration in a standard Peters' four-day test, and no parasites visible in any of the tested mice were observed. […] Actually, this signal can also arise from dying parasites.

[12] = system: P. berghei ANKA strain expressing luciferase; assay: Survival of P. berghei ANKA infected mice (30 days)
Protocol: In light of in vitro metabolic stability and in vivo efficacy mentioned above, compound 24 s was also administered at 100 and 25 mg/kg to malaria infected mice, and the survival rate was evaluated for 30 days. […] BALB/c females were infected with P. berghei ANKA strain expressing luciferase and treated 4 h post-infection with 25 and 100 mg/kg orally once daily for 4 days.

[13] = system: malaria infection in mice; details: cited from earlier work
[14] = mouse liver microsomes; value reported from an initial study; cited from earlier work
[15] = Plasmodium falciparum, 3D7, read-out: Early stage IC50 (nM)
[16] = HepG2 cells (human hepatocytes)
[17] = Plasmodium falciparum, DD2, Table 6A, unit not given (text gives nM), footnote calls it IC50, read-out: Antiplasmodium activity Dd2 (converted)
[18] = Plasmodium falciparum, CQ-resistant (Dd2) strain, 72 h incubation, read-out: EC50 (nmol)
[19] = Plasmodium falciparum, Dd2 strain, read-out: EC50

C[C@@H]1CC[C@H]2[C@@H](C)C(=O)O[C@@H]3O[C@@]4(C)CC[C@@H]1[C@]32OO4 [Artemisinin]
EC50 [1]: 28 ± 6 nM

CN1CCN(CCNc2cc(/C=C/c3ccc(F)cc3)nc3ccc(Cl)cc23)CC1 [Compound 86]
IC50 ([2]; early stage gametocytes, means and SEMs of three experiments, read-out: Early stage IC50): 910 ± 314 nM | Projected t1/2 [3]: 1 h | Clint ([3]; mouse): 23.0 µL/min/mg | % remaining after 60 min ([3]; mouse): 50.2% | IC50 (HepG2): 3200 ± 491 nM | SI, selectivity index = [IC50 (HepG2)/IC50 (Dd2)] (HepG2): 209 | inhibitory activity towards β-hematin formation [4]: much weaker than that of CQ | IC50 [5]: 2500 ± 424 nM | rate of killing (parasitemia after exposure and wash-out) [6]: remarkable reduction in parasitemias | RI, resistance index = [IC50 (Dd2)/IC50 (3D7)] [7]: 1 | EC50 ([7]; CQ-resistant (Dd2) strain, 72 h incubation, read-out: EC50 (nmol)): 15.3 ± 3.4 nM | EC50 ([7]; Table 6A, unit not given (text gives nM), footnote calls it IC50, read-out: Antiplasmodium activity Dd2 (converted)): 15.3 ± 3.4 nM | EC50 [8]: 15.7 ± 2.9 nM | stage-specific inhibition of P. falciparum growth [9]: stage-specific action at the trophozoite phase

CN(C)CCNc1cc(/C=C/c2ccc(C(F)(F)F)cc2)nc2ccc(Cl)cc12 [Compound 24]
IC50 [2, 15]: 472 ± 18.4 nM | EC50 ([2]; Plasmodium falciparum, 3D7, read-out: Pf Gametocyte EC50 (early stage)): 472 ± 18.4 nM | Projected t1/2 ([3]; mouse): 1.737 h | Clint ([3]; mouse): 13.3 µL/min/mg | % remaining after 60 min ([3]; mouse): 67.1% | IC50 [10, 16]: 11200 ± 1860 nM | SI, selectivity index = [IC50 (HepG2)/IC50 (Dd2)] (HepG2): 1031 | inhibitory activity towards β-hematin formation [4]: weaker inhibitory activity; also recorded: very low activity | in vivo efficacy (efficacious dose) [11]: 25 mg/kg | IC50 ([5]; Plasmodium falciparum, 3D7): 394 ± 99.4 nM | EC50 ([5]; Plasmodium falciparum, 3D7, read-out: Pf Gametocyte EC50 (late stage)): 394 ± 99.4 nM | rate of killing (parasitemia after exposure and wash-out) [6]: remarkable reduction in parasitemias | mice with 100% reduction of parasitemia ([12]; 25 mg/kg, po): 3/4 | mice with 100% reduction of parasitemia ([12]; 100 mg/kg, p.o.): 5/5 | tolerability / signs of toxicity ([12]; infected mice, 25 and 100 mg/kg p.o.): without apparent signs of toxicity | RI, resistance index = [IC50 (Dd2)/IC50 (3D7)] ([7]; Dd2 versus 3D7): 0.6 | EC50 [7, 17]: 10.9 ± 1.9 nM | EC50 [7, 18]: 10.9 ± 1.9 nM | IC50 ([7]; Plasmodium falciparum, Dd2 strain): ≤ 15 nM | EC50 [7, 19]: ≤ 15 nM | EC50 ([8]; Plasmodium falciparum, 3D7): 16.8 ± 0.8 nM | stage-specific inhibition of P. falciparum growth [9]: blocked at the trophozoite stage

C[C@H]1[C@@H](O)O[C@@H]2O[C@@]3(C)CC[C@H]4[C@H](C)CC[C@@H]1[C@@]24OO3 [DHA, dihydroartemisinin, reference compound]
IC50 [2, 15]: 17.4 ± 3.7 nM | IC50 ([5]; Plasmodium falciparum, 3D7): 37.4 ± 8.9 nM

CCN(CC)CCCC(C)Nc1ccnc2cc(Cl)ccc12 (stereo not drawn) [CQ, Chloroquine, reference compound]
IC50 [10]: 10400 ± 860 nM | SI, selectivity index = [IC50 (HepG2)/IC50 (Dd2)] (HepG2): 60 | inhibitory activity towards β-hematin formation [4]: potently inhibited | RI, resistance index = [IC50 (Dd2)/IC50 (3D7)] [7]: 9.8 | EC50 ([7]; Plasmodium falciparum, DD2, 72 h, CQ-resistant (Dd2) strain, 72 h incubation): 174 ± 15.5 nM | EC50 ([7]; Plasmodium falciparum, DD2, read-out: Antiplasmodium activity Dd2, Table 6A, unit not given (text gives nM), footnote calls it IC50): 174 ± 15.5 nM | EC50 ([8]; Plasmodium falciparum, 3D7): 17.8 ± 5.5 nM

CN(C)c1ccc2nc3ccc(=[N+](C)C)cc-3sc2c1 [Methylene blue, reference compound]
IC50 [2, 15]: 74.7 ± 21.9 nM | IC50 ([5]; Plasmodium falciparum, 3D7): 107 ± 46.3 nM

CCN(CC)CCCC(C)Nc1cc(/C=C/c2ccc([N+](=O)[O-])cc2)nc2ccc(OC)cc12 (stereo not drawn) [Compound according to Formula 1, reference compound]
Projected t1/2 ([3]; mouse): 0.692 h | Clint ([3]; mouse): 33.4 µL/min/mg | % remaining after 60 min ([3]; mouse): 36.7% | IC50 [10, 16]: 12920 ± 70.1 nM | SI, selectivity index = [IC50 (HepG2)/IC50 (Dd2)] (HepG2): 193 | SI, selectivity index = [IC50 (HepG2)/IC50 (Dd2)] (HepG2; listed as Compd. of Formula 1): 192 | mice cured of malaria infection ([13]; 100 mg/kg twice daily po, previous study): 4/5 | in vivo efficacy (efficacious dose) ([13]; twice daily, po): 100 mg/kg | % remaining after 60 min [14]: 47.8^a % | Projected t1/2 (min) [14]: 56.2^a min | RI, resistance index = [IC50 (Dd2)/IC50 (3D7)] ([7]; Dd2 versus 3D7): 0.6 | EC50 [7, 17]: 67 ± 8 nM | EC50 [7, 18]: 67 ± 8 nM | EC50 [7, 19]: 67 ± 8 nM | EC50 ([8]; Plasmodium falciparum, 3D7): 119 ± 3 nM
